According to patent publication US20090000631A1, “Smoking articles and method for incorporating salts of lanthanide metals for reducing TPM cytotoxicity and targeted constituents in tobacco smoke” (Philip Morris USA Inc., priority 2007, published 2009):

How the values were obtained:
[1] = Relative phenolic and PAH contents of mainstream TPM by GC/MS (FTC smoking, 3rd and 4th puffs); settings: change of relative content in mainstream TPM, tobacco treated with acetate salt alone
Excerpt: (§1) Under FTC conditions, the 3rd and 4th puffs of the mainstream TPM are collected. The relative phenolic and PAH contents are obtained by GC/MS methods. The TPM cytotoxicity data is obtained using the Neutral Red Uptake, while mutagenicity data is obtained using Ames assays.
(§2) Under FTC conditions, the 3rd and 4th puffs of the mainstream TPM are collected. The relative phenolic and PAH contents are obtained by GC/MS methods. The TPM cytotoxicity and mutagenicity data are obtained using Neutral Red Uptake and Ames assays, respectively.

[2] = system: TPM cytotoxicity; test: TPM cytotoxicity, Neutral Red Uptake; format: cell-based; settings: change of TPM cytotoxicity; tobacco treated with acetate salt alone; FTC, 3rd and 4th puffs
Excerpt: as §1, §2

[3] = system: TPM mutagenicity; test: TPM mutagenicity, Ames assays; format: cell-based; settings: for Mutagenicity: change of TPM mutagenicity, tobacco treated with acetate salt alone, FTC, 3rd and 4th puffs; for mutagenicity of the mainstream smoke (in words): mainstream smoke TPM of treated tobacco
Excerpt: as §1, §2

Row | Compound | HQ [1] [%] | Naphthalene [1] [%] | catechol [1] [%] | resorcinol [1] | Cytotoxicity [2] | Mutagenicity [3] | mutagenicity of the mainstream smoke (in words) [3]
1 | CC(=O)[O-].CC(=O)[O-].CC(=O)[O-].O.[Ce+3] [7.4% Ce(OAc)3•H2O, Ce(OAc)3•H2O] | −23 | −47 | −54 | — (No significant change (absolute change <20%)) | — (No significant change (absolute change <20%)) | — (No significant change (absolute change <20%)) | –
2 | CC(=O)[O-].CC(=O)[O-].CC(=O)[O-].O.[Eu+3] [8% Eu(OAc)3•H2O, Eu(OAc)3•H2O] | −39 | −54 | −48 | −33% | — (No significant change (absolute change <20%)) | −21% | reduced
3 | CC(=O)[O-].CC(=O)[O-].CC(=O)[O-].[La+3] [8% La(OAc)3•xH2O (x ≦ 2), La(OAc)3•xH2O] | −60 | −51 | −41 | −56% | −25% | −46% | reduced
4 | CC(=O)[O-].CC(=O)[O-].CC(=O)[O-].O.[Lu+3] [8.2% Lu(OAc)3•H2O, Lu(OAc)3•H2O] | −49 | −33 | −33 | −39% | — (No significant change (absolute change <20%)) | — (No significant change (absolute change <20%)) | reduced
